From ChEMBL document CHEMBL1201862, “PubChem BioAssay data set” (2004)
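Assay format: 96-well plates, 48-hour exposure. GI50 marks 50% less growth.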 The source made the active and inactive calls. No stated cut-off is given here; in the data, active = GI50 up to about 1.1 µM and inactive = higher.

Key:
Assay in all cases: DTP human tumour cell line panel, 48 h
SF-295 = tested on: SF-295
NCI-H226 = tested on: NCI-H226
SR = tested on: SR
SK-MEL-5 = tested on: SK-MEL-5
UACC-257 = tested on: UACC-257
A549 = tested on: A549
EKVX = tested on: EKVX
MDA-MB-435 = tested on: MDA-MB-435
MDA-MB-231 = tested on: MDA-MB-231
M14 = tested on: M14
CAKI-1 = tested on: CAKI-1
MOLT-4 = tested on: MOLT-4
HL-60 = tested on: HL-60
TK-10 = tested on: TK-10
U-251 = tested on: U-251
HOP-92 = tested on: HOP-92
A498 = tested on: A498
UACC-62 = tested on: UACC-62
BT-549 = tested on: BT-549

Measured: GI50

NS(=O)(=O)c1cc2c(cc1Cl)NCNS2(=O)=O [HYDROCHLOROTHIAZIDE]
inactive: SF-295 > 100 µM | NCI-H226 > 100 µM | SR > 100 µM | SK-MEL-5 > 100 µM | UACC-257 > 100 µM | A549 > 100 µM | EKVX > 100 µM | MDA-MB-435 > 100 µM | MDA-MB-231 > 100 µM | M14 > 100 µM | CAKI-1 > 100 µM | MOLT-4 > 100 µM | HL-60 > 100 µM | TK-10 > 100 µM | U-251 > 100 µM | HOP-92 > 100 µM

Cc1ccc(C2(N3CCCC3)OC(C)(C)c3cccc4cccc2c34)cc1 (centres undefined)
inactive: SF-295 14.5 µM | NCI-H226 15.3 µM | SR 23.2 µM | SK-MEL-5 15 µM | UACC-257 16.9 µM | A549 11 µM | EKVX 11.4 µM | MDA-MB-435 14.8 µM | A498 16.2 µM | M14 17.4 µM | CAKI-1 15.7 µM | MOLT-4 20.7 µM | HL-60 30.8 µM | TK-10 16.8 µM | UACC-62 13.7 µM | U-251 16 µM | BT-549 15.7 µM | HOP-92 1.48 µM

COC(=O)c1c(C)cccc1/C=C1\Cc2cc(C)cc(C)c2C1=O
inactive: SF-295 21.7 µM | NCI-H226 56.5 µM | SR > 100 µM | SK-MEL-5 32.3 µM | UACC-257 > 100 µM | A549 76.4 µM | EKVX 37.6 µM | MDA-MB-231 > 100 µM | A498 51.2 µM | M14 55 µM | CAKI-1 > 100 µM | MOLT-4 > 100 µM | HL-60 > 100 µM | TK-10 27.2 µM | UACC-62 10 µM | U-251 15.3 µM | BT-549 > 100 µM | HOP-92 17.9 µM

CC(=O)CN/C(C)=N/Nc1ccc([N+](=O)[O-])cc1[N+](=O)[O-]
inactive: SF-295 > 100 µM | NCI-H226 > 100 µM | SR > 100 µM | SK-MEL-5 > 100 µM | A549 > 100 µM | EKVX 52.2 µM | MDA-MB-435 > 100 µM | MDA-MB-231 > 100 µM | A498 78.3 µM | M14 > 100 µM | CAKI-1 15.3 µM | MOLT-4 > 100 µM | UACC-62 80.9 µM | U-251 > 100 µM

C=C(C)[C@H]1CC(=O)[C@@]2(C)C[C@H]3O[C@]3(C)CC/C=C(\C)CC[C@H]12
inactive: SF-295 > 100 µM | NCI-H226 31.7 µM | SK-MEL-5 32.2 µM | UACC-257 19.4 µM | A549 58.1 µM | EKVX 40.5 µM | MDA-MB-435 43.8 µM | MDA-MB-231 84.1 µM | A498 36.1 µM | M14 > 10 µM | CAKI-1 28.2 µM | MOLT-4 24 µM | HL-60 21.6 µM | TK-10 22.2 µM | UACC-62 28.1 µM | U-251 51.9 µM | HOP-92 64.1 µM

CCCCSc1nsc(N(C(=O)c2ccccc2)C(=O)c2ccccc2)n1
inactive: SF-295 32.7 µM | NCI-H226 29.7 µM | SR 21.6 µM | SK-MEL-5 18.8 µM | UACC-257 27.3 µM | A549 36.5 µM | EKVX 27.5 µM | MDA-MB-435 33.7 µM | A498 31.5 µM | M14 29 µM | CAKI-1 36.5 µM | MOLT-4 24.2 µM | HL-60 28.1 µM | TK-10 36.4 µM | UACC-62 23.4 µM | U-251 32.4 µM | BT-549 29.1 µM | HOP-92 26.2 µM

CC(=O)O[C@H]1/C(=C/c2ccc(N(C)C)cc2)C[C@H]2[C@@H]3CC=C4C[C@@H](N5CCCC5)CC[C@]4(C)[C@H]3CC[C@]12C
inactive: SF-295 > 100 µM | NCI-H226 > 100 µM | SR 40 µM | SK-MEL-5 > 100 µM | UACC-257 > 100 µM | A549 > 100 µM | EKVX > 100 µM | MDA-MB-231 > 100 µM | A498 > 100 µM | M14 > 100 µM | MOLT-4 > 100 µM | HL-60 > 100 µM | TK-10 > 100 µM | UACC-62 > 100 µM | U-251 > 100 µM | BT-549 > 100 µM | HOP-92 > 100 µM

Clc1ccc(-c2cc(-c3cc4cc(Br)ccc4nc3Cl)on2)cc1
inactive: SF-295 11.3 µM | NCI-H226 13.3 µM | SR 10.4 µM | SK-MEL-5 9.12 µM | UACC-257 13 µM | A549 13.2 µM | EKVX 4.93 µM | MDA-MB-435 11 µM | A498 11.7 µM | M14 12.5 µM | CAKI-1 10.9 µM | MOLT-4 14.1 µM | HL-60 1.7 µM | UACC-62 14.5 µM | BT-549 20.2 µM | HOP-92 27.9 µM

CN(C)CCCNc1ccc2c(=O)n(CCN(C)C)c(=O)n3c4ccccc4c(=O)c1c23
active: SF-295 0.245 µM | NCI-H226 0.368 µM | SR 0.022 µM | SK-MEL-5 0.35 µM | UACC-257 0.396 µM | A549 0.155 µM | EKVX 0.272 µM | MDA-MB-435 0.259 µM | MDA-MB-231 0.164 µM | A498 0.309 µM | M14 0.394 µM | CAKI-1 0.211 µM | MOLT-4 0.0268 µM | HL-60 0.15 µM | TK-10 0.518 µM | UACC-62 0.342 µM | U-251 0.234 µM | HOP-92 0.664 µM

O=C(Sc1c(-c2ccccc2)c(=O)n(-c2ccccc2)c(=S)n1-c1ccccc1)c1cccs1
inactive: SF-295 61 µM | NCI-H226 > 100 µM | SR 38.4 µM | SK-MEL-5 19.2 µM | UACC-257 60.3 µM | A549 > 100 µM | EKVX > 100 µM | MDA-MB-435 56.4 µM | M14 53.6 µM | CAKI-1 > 100 µM | MOLT-4 18.7 µM | HL-60 76 µM | TK-10 > 100 µM | UACC-62 > 10 µM | U-251 84.1 µM | BT-549 > 100 µM | HOP-92 50 µM

COc1ccc(Nc2nc3ccc(C(F)(F)F)cc3nc2-c2ccccc2)cc1OC
inactive: SF-295 17.4 µM | NCI-H226 28.6 µM | SR 21.4 µM | SK-MEL-5 35.8 µM | UACC-257 38.5 µM | A549 39.5 µM | EKVX 20.7 µM | A498 21.3 µM | M14 55.5 µM | CAKI-1 60.4 µM | MOLT-4 22 µM | HL-60 36.1 µM | TK-10 > 10 µM | UACC-62 66.8 µM | U-251 34.1 µM
active: HOP-92 1.08 µM

CN(C)CCNC(=O)c1cccc2[nH]c(-c3cccnc3)nc12
inactive: SF-295 30.5 µM | NCI-H226 22.4 µM | SK-MEL-5 16.9 µM | UACC-257 18.5 µM | A549 19.8 µM | EKVX 22.8 µM | A498 14.2 µM | M14 20.9 µM | CAKI-1 27.6 µM | MOLT-4 25.8 µM | HL-60 31.5 µM | TK-10 19.8 µM | UACC-62 18.9 µM | U-251 22.6 µM | HOP-92 22.6 µM

COc1ccc(CNc2cnc3ccc(N)cc3n2)cc1
inactive: SF-295 > 100 µM | NCI-H226 > 100 µM | SK-MEL-5 35.3 µM | UACC-257 > 100 µM | A549 > 100 µM | EKVX > 100 µM | M14 > 100 µM | CAKI-1 > 100 µM | MOLT-4 24.7 µM | HL-60 > 100 µM | TK-10 > 100 µM

COC(=O)C1(Cc2ccccc2)Cc2ccccc2C1
inactive: SF-295 36.5 µM | NCI-H226 25.6 µM | SR 24.4 µM | SK-MEL-5 15.7 µM | UACC-257 24.4 µM | A549 26.7 µM | EKVX 9.84 µM | MDA-MB-435 19.2 µM | MDA-MB-231 32.7 µM | M14 17.1 µM | CAKI-1 18.5 µM | MOLT-4 14.8 µM | HL-60 14.3 µM | TK-10 21.2 µM | UACC-62 21.5 µM | U-251 25.8 µM | HOP-92 11.5 µM

Clc1ccc(OCc2nnc(CCCCCCCCc3nnc(COc4ccc(Cl)cc4)n3Nc3ccccc3)n2Nc2ccccc2)cc1
active: SF-295 0.145 µM | SK-MEL-5 0.463 µM | CAKI-1 0.531 µM | UACC-62 0.895 µM
inactive: NCI-H226 9.62 µM | UACC-257 7.35 µM | A549 1.19 µM | EKVX 12.9 µM | MDA-MB-435 2.22 µM | MDA-MB-231 26.2 µM | A498 62.5 µM | M14 2.08 µM | MOLT-4 12.3 µM | TK-10 23.7 µM | U-251 23.5 µM | BT-549 11.6 µM | HOP-92 21.4 µM

CC(O)CNC(=O)C(C)Oc1ccc(OCC2CCCCC2)cc1 (centres undefined)
inactive: SF-295 84.1 µM | NCI-H226 88.5 µM | SK-MEL-5 > 100 µM | UACC-257 73.6 µM | A549 > 100 µM | A498 20.7 µM | M14 > 100 µM | MOLT-4 > 100 µM | HL-60 > 100 µM | TK-10 > 100 µM | UACC-62 > 100 µM | U-251 > 100 µM

CN(C)CC1COC2Cc3ccccc3C1O2 (centres undefined)
inactive: SF-295 > 100 µM | NCI-H226 > 100 µM | SR > 100 µM | SK-MEL-5 > 100 µM | UACC-257 > 100 µM | A549 > 100 µM | EKVX > 100 µM | MDA-MB-435 > 100 µM | MDA-MB-231 > 100 µM | A498 > 100 µM | M14 > 100 µM | CAKI-1 > 100 µM | MOLT-4 > 100 µM | HL-60 72.6 µM | TK-10 > 100 µM | U-251 > 100 µM | HOP-92 > 100 µM
